Where a name gives a salt, the structure may show the parent alone. Read-outs that look alike come from different tables or passages of the source.
Assays:
[1] = biological target: T1, MBP-CDC25B3 recombinant enzyme (Homo sapiens, UniProt P30305); test: In vitro enzymatic assay (fluorescein diphosphate as substrate); type: biochemical; conditions: recombinant fused MBP-CDC25B protein, fluorescein diphosphate 30 µM as substrate, concentration response up to 100 µM
T1 construct: made in house
T1 sequence (P30305 1-580): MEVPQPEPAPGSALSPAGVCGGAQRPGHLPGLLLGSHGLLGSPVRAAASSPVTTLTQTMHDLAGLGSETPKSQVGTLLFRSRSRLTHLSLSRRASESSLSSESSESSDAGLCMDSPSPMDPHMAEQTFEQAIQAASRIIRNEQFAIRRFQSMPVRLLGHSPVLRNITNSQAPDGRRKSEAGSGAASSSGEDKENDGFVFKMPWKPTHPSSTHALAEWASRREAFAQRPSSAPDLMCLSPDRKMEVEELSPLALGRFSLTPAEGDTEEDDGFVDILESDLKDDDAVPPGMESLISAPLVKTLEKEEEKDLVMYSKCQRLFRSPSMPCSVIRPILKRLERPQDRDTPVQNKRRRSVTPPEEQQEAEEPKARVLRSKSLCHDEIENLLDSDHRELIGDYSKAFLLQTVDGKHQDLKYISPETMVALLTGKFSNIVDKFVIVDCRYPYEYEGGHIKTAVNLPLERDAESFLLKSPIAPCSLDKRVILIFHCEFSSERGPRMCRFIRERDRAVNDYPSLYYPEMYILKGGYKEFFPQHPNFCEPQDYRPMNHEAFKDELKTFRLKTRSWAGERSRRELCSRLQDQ
Experimental: The activity of the MBP-CDC25B3 recombinant enzyme was monitored using fluorescein diphosphate as the substrate. The assay was performed in 96-well plates in a final volume of 200 µL. The maltose binding protein-CDC25B3 was kept in elution buffer [50mM phosphate pH 7.5, 300 mM NaCl, 500 mM imidazole, 10% glycerol]. It was diluted in assay buffer [30 mM Tris-HCl (pH 8.2), 75 mM NaCl, 0.67 mM EDTA, 0.033% BSA, 1 mM DTT]. The final concentration of CDC25B3 was 75 ng/well. Products were studied in a concentration response up to 100 µM. The reaction was initiated by addition of 30 µM of fluorescein diphosphate followed by immediate measure of fluorescein emission with a Fluoroskan Ascent (Lab Systems; excitation filter: 485 nm, emission filter: 530 nm). The results are expressed as the means of at least two independent experiments with three determinations per tested concentration and per experiment. For each compound, the drug concentration required for 50% inhibition (IC50) was determined from a sigmoidal dose-response curve using GraphPad Prism (GraphPad Software, San Diego, CA).
The compounds of formula (I) were evaluated for in vitro enzymatic activity inhibition on the recombinant fused MBP-CDC25B protein with fluorescein diphosphate as the substrate.

HeLa cells = test: Clonogenic assay (cloning inhibition, colony counting after crystal violet staining); type: cell-based; conditions: 10 days incubation
Experimental: For cloning inhibition assays, HeLa cells were plated at 100 cells/well in 6-well tissue culture plates with 2.5 mL of medium/well. After 24 h growing at 37 °C in a humidified atmosphere of 5% CO2, the culture medium was replaced by control medium or medium containing inhibitors at increasing concentrations (up to 100 µM) and incubated for 10 days. Cells were then washed with […] phosphate-buffered saline and fixed in 10% formaldehyde for 30 minutes at room temperature. They were carefully rinsed with water, stained with 1 mL crystal violet (2 g in 100 mL ethanol, then 2 mL in 100 mL water) for 10 minutes and finally rinsed with water. The plating efficiency was determined by counting the colonies. The results are expressed as the means of two independent experiments with three determinations per tested concentration. For each compound, the IC50 was determined from a sigmoidal dose-response using GraphPad Prism (GraphPad Software, San Diego, CA).
The effects on cell proliferation were further investigated in a clonogenic assay on HeLa cells. HeLa cells were treated at day 1 with increasing concentration of drugs and then plated for an additional 10-day. After crystal violet staining and colony counting, dose-response curve were drawn and the IC50 values determined.

[2] = Homo sapiens, 240 h, read-out: IC50

Row | Structure (SMILES) | IC50 [1] [µM] | IC50 (HeLa cells; [2]) [µM] | IC50 (HeLa cells; mesylate) [µM] | IC50 (HeLa cells; Homo sapiens, HeLa, 240 h) [µM]
1 | CCOC(=O)C1=C(C)N=c2sc(=Cc3cc(Br)c(O)c(Br)c3)c(=O)n2C1c1ccc2c(c1)OCO2 (centres unmarked) [Compound 12, ethyl 5-(benzo[1,3]dioxol-5-yl)-2-(3,5-dibromo-4-hydroxybenzylidene)-7-methyl-3-oxo-2,3-dihydro-5H-thiazolo[3,2-a]pyrimidine-6-carboxylate] | 16.7 | 9.75 | – | –
2 | CCOC(=O)C1=C(C)N=c2sc(=Cc3ccc(OC(C)=O)c(OC(C)=O)c3)c(=O)n2C1c1ccc(OC)c(OC)c1 (centres unmarked) [Compound (5b), ethyl 2-(3,4-diacetoxybenzylidene)-5-(3,4-dimethoxyphenyl)-7-methyl-3-oxo-2,3-dihydro-5H-thiazolo[3,2-a]pyrimidine-6-carboxylate] | 2.9 | 3.5 | – | –
3 | CCOC(=O)C1=C(C)N=c2sc(=Cc3ccc(O)cc3)c(=O)n2C1c1ccc2c(c1)OCO2 (centres unmarked) [(1a), ethyl 5-(benzo[1,3]dioxol-5-yl)-2-(4-hydroxybenzylidene)-7-methyl-3-oxo-2,3-dihydro-5H-thiazolo[3,2-a]pyrimidinium-6-carboxylate mesylate] | 6 | – | 14.8 | –
4 | CCOC(=O)C1=C(C)N=c2sc(=Cc3ccc(O)cc3)c(=O)n2C1c1ccc2c(c1)OCO2 (stereo not drawn) [Compound 1, ethyl 5-(benzo[1,3]dioxol-5-yl)-2-(4-hydroxybenzylidene)-7-methyl-3-oxo-2,3-dihydro-5H-thiazolo[3,2-α]pyrimidine-6-carboxylate] | 13 | – | – | 15.9
5 | COC(=O)C1=C(C)N=c2sc(=Cc3ccc(O)cc3)c(=O)n2C1c1ccc2c(c1)OCO2 (centres unmarked) [(12a), methyl 5-(benzo[1,3]dioxol-5-yl)-2-(4-hydroxybenzylidene)-7-methyl-3-oxo-2,3-dihydro-5H-thiazolo[3,2-a]pyrimidine-6-carboxylate] | 9.2 | – | – | –
6 | CCOC(=O)C1=C(C)N=c2sc(=Cc3ccc(OC(C)=O)c(OC(C)=O)c3)c(=O)n2C1c1ccc2c(c1)OCO2 (centres unmarked) [Compound (5a), ethyl 2-(3,4-diacetoxybenzylidene)-5-(benzo[1,3]dioxol-5-yl)-7-methyl-3-oxo-2,3-dihydro-5H-thiazolo[3,2-a]pyrimidine-6-carboxylate] | 1.2 | 1.8 | – | –

— patent publication EP2000140A1, “Use of derivatives of 3-oxo-2,3-dihydro-5H-thiazolo[3,2-a]pyrimidine or of 3-oxo-2,3-dihydro-5H-imidazolo[3,2-a]pyrimidine for the preparation of pharmaceutical compositions intended for the treatment of cancer” (INSTITUT NATIONAL DE LA SANTE ET DE LA RECHERCHE MEDICALE …, priority 2007, dated 2008)
